Reference: PubChem BioAssay (NCI)
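Exposure lasted 48 hours, with cells grown in 96-well plates and compounds tested at five concentrations. TGI denotes the concentration required for complete inhibition of growth.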

What was measured:
Assay in all cases: NCI tumour cell line growth inhibition, 48 h
[1] = system: 786-0 renal
[2] = system: A498 renal
[3] = system: A549 NSCLC
[4] = system: ACHN renal
[5] = system: BT-549 breast
[6] = system: CAKI-1 renal
[7] = system: CCRF-CEM leukemia
[8] = system: COLO 205 colon
[9] = system: DU-145 prostate
[10] = system: EKVX NSCLC
[11] = system: HCT-116 colon
[12] = system: HCT-15 colon
[13] = system: HL-60(TB) leukemia
[14] = system: HOP-62 NSCLC
[15] = system: HOP-92 NSCLC
[16] = system: HS 578T breast
[17] = system: HT29 colon
[18] = system: IGROV1 ovarian
[19] = system: K-562 leukemia
[20] = system: LOX IMVI melanoma
[21] = system: M14 melanoma
[22] = system: MALME-3M melanoma
[23] = system: MCF7 breast
[24] = system: MDA-MB-231 breast
[25] = system: MDA-MB-435
[26] = system: MDA-N
[27] = system: MOLT-4 leukemia
[28] = system: NCI-H226 lung
[29] = system: NCI-H23 lung
[30] = system: NCI-H522 lung
[31] = system: NCI/ADR-RES ovarian
[32] = system: OVCAR-3 ovarian
[33] = system: OVCAR-4 ovarian
[34] = system: OVCAR-5 ovarian
[35] = system: OVCAR-8 ovarian
[36] = system: PC-3 prostate
[37] = system: RPMI-8226 leukemia
[38] = system: RXF 393 renal
[39] = system: SF-268 CNS
[40] = system: SF-295 CNS
[41] = system: SF-539 CNS
[42] = system: SK-MEL-2 melanoma
[43] = system: SK-MEL-28 melanoma
[44] = system: SK-MEL-5 melanoma
[45] = system: SK-OV-3 ovarian
[46] = system: SN12C renal
[47] = system: SNB-19 CNS
[48] = system: SNB-75 CNS
[49] = system: T-47D breast
[50] = system: TK-10 renal
[51] = system: U251 CNS
[52] = system: UACC-257 melanoma
[53] = system: UACC-62 melanoma
[54] = system: UO-31 renal
[55] = system: HCC-2998 colon
[56] = system: KM12 colon
[57] = system: NCI-H460 lung
[58] = system: SW-620 colon

Compound: COc1ccc(N=CN(C)C)c(C)c1
- TGI [1]: > 100 µM
- TGI [2]: 60.5 µM
- TGI [3]: > 100 µM
- TGI [4]: 66.3 µM
- TGI [5]: 58.2 µM
- TGI [6]: > 100 µM
- TGI [7]: 16.5 µM
- TGI [8]: 28 µM
- TGI [9]: 82 µM
- TGI [10]: > 100 µM
- TGI [11]: 19.6 µM
- TGI [12]: > 100 µM
- TGI [13]: 4.1 µM
- TGI [14]: 45.4 µM
- TGI [15]: 36.3 µM
- TGI [16]: 19.8 µM
- TGI [17]: 44.6 µM
- TGI [18]: > 100 µM
- TGI [19]: > 100 µM
- TGI [20]: 15.2 µM
- TGI [21]: 55.5 µM
- TGI [22]: 54 µM
- TGI [23]: 44.3 µM
- TGI [24]: 58 µM
- TGI [25]: 93.3 µM
- TGI [26]: > 100 µM
- TGI [27]: 23.8 µM
- TGI [28]: 64.5 µM
- TGI [29]: 7.23 µM
- TGI [30]: 8.08 µM
- TGI [31]: > 100 µM
- TGI [32]: 13.1 µM
- TGI [33]: 73.6 µM
- TGI [34]: > 100 µM
- TGI [35]: 83.8 µM
- TGI [36]: 31 µM
- TGI [37]: > 100 µM
- TGI [38]: 67.2 µM
- TGI [39]: > 100 µM
- TGI [40]: 51.6 µM
- TGI [41]: 82.1 µM
- TGI [42]: 30.4 µM
- TGI [43]: 85.6 µM
- TGI [44]: 12.5 µM
- TGI [45]: 82.8 µM
- TGI [46]: 64 µM
- TGI [47]: > 100 µM
- TGI [48]: 63.9 µM
- TGI [49]: 68.4 µM
- TGI [50]: > 100 µM
- TGI [51]: 72.5 µM
- TGI [52]: 9.95 µM
- TGI [53]: 42.6 µM
- TGI [54]: 78.1 µM

Compound: N#CSc1ccc(S(N)(=O)=O)cc1
- TGI [1]: 65.2 µM
- TGI [2]: > 100 µM
- TGI [3]: > 100 µM
- TGI [4]: > 100 µM
- TGI [5]: > 100 µM
- TGI [6]: > 100 µM
- TGI [7]: 88.7 µM
- TGI [8]: > 100 µM
- TGI [9]: > 100 µM
- TGI [10]: > 100 µM
- TGI [55]: > 100 µM
- TGI [11]: > 100 µM
- TGI [12]: > 100 µM
- TGI [13]: 37.1 µM
- TGI [14]: > 100 µM
- TGI [15]: > 100 µM
- TGI [16]: > 100 µM
- TGI [17]: > 100 µM
- TGI [18]: > 100 µM
- TGI [19]: > 100 µM
- TGI [56]: > 100 µM
- TGI [20]: > 100 µM
- TGI [21]: 45.5 µM
- TGI [22]: > 100 µM
- TGI [23]: > 100 µM
- TGI [24]: > 100 µM
- TGI [25]: > 100 µM
- TGI [26]: > 100 µM
- TGI [27]: 29.6 µM
- TGI [28]: > 100 µM
- TGI [29]: > 100 µM
- TGI [57]: > 100 µM
- TGI [30]: 26.5 µM
- TGI [31]: > 100 µM
- TGI [32]: > 100 µM
- TGI [33]: 93.1 µM
- TGI [34]: > 100 µM
- TGI [35]: > 100 µM
- TGI [36]: > 100 µM
- TGI [37]: 61.5 µM
- TGI [38]: 70.6 µM
- TGI [39]: > 100 µM
- TGI [40]: > 100 µM
- TGI [41]: 68 µM
- TGI [42]: > 100 µM
- TGI [43]: > 100 µM
- TGI [44]: > 100 µM
- TGI [45]: > 100 µM
- TGI [46]: > 100 µM
- TGI [47]: > 100 µM
- TGI [48]: > 100 µM
- TGI [58]: 98.9 µM
- TGI [49]: > 100 µM
- TGI [50]: > 100 µM
- TGI [51]: 38.1 µM
- TGI [52]: > 100 µM
- TGI [53]: > 100 µM
- TGI [54]: 35.2 µM
